Test results as given in ChEMBL document CHEMBL5052856, “Inhibitors of apol1 and methods of using same” (2021).

Key:
Apolipoprotein L1 = Apolipoprotein L1 (Homo sapiens, UniProt O14791); assay: Inhibition of APOL1 G1 variant in human HEK293-T-REx cells measured by Thallium assay; format: cell-based
[1] = tested on: Trypanosoma brucei brucei; assay: Antitrypanosomal activity against Trypanosoma brucei brucei assessed as trypanosome lysis using recombinant APOL1 protein G1 variant and measured by Alamar blue based fluoresence assay; format: functional, organism-based

Row | Structure (SMILES) | IC50 (Apolipoprotein L1) | IC50 [1]
1 | C[C@H](O)[C@@H](CO)NC(=O)[C@H]1C[C@H](c2c(-c3ccc(F)cc3)[nH]c3c(F)cc(F)cc32)C1 | < 250 nM | < 250 nM
2 | O=C(CC1CC(c2c(-c3ccc(F)cc3)[nH]c3c(F)cc(F)cc23)C1)N[C@@H](CO)C(F)(F)F (stereo not given in full) | > 1000 nM | 
3 | C[C@H](NCC1CC(c2c(-c3ccc(F)cc3)[nH]c3c(F)cc(F)cc23)C1)C(N)=O (stereo not given in full) | > 1000 nM | 
4 | CC(C)(NCC1CC(c2c(-c3ccc(F)cc3)[nH]c3c(F)cc(F)cc23)C1)C(N)=O (stereo not given) | > 1000 nM | 
5 | NC(=O)C(CO)NCC1CC(c2c(-c3ccc(F)cc3)[nH]c3c(F)cc(F)cc23)C1 (stereo not given) | 0.25 nM | 
6 | CC(C)C(CO)NC(=O)[C@H]1C[C@H](c2c(-c3ccc(F)cc3)[nH]c3c(F)cc(F)cc32)C1 (stereo not given in full) | > 1000 nM | 250 nM
7 | CC(C)(CO)NC(=O)[C@H]1C[C@H](c2c(-c3ccc(F)cc3)[nH]c3c(F)cc(F)cc32)C1 | < 250 nM | 250 nM
8 | CNC(=O)CNC[C@H]1C[C@H](c2c(-c3ccc(F)cc3)[nH]c3c(F)cc(F)cc32)C1 | < 250 nM | 
9 | CN(C)C(=O)CNCC1CC(c2c(-c3ccc(F)cc3)[nH]c3c(F)cc(F)cc23)C1 (stereo not given) | 0.25 nM | 
10 | O=C(NCC(F)(F)F)[C@H]1C[C@H](c2c(-c3ccc(F)cc3)[nH]c3c(F)cc(F)cc32)C1 | 0.25 nM | > 1000 nM
11 | COC1CC1NC(=O)[C@H]1C[C@H](c2c(-c3ccc(F)cc3)[nH]c3c(F)cc(F)cc32)C1 (stereo not given in full) | > 1000 nM | > 1000 nM
12 | O=C(CC1CC(c2c(-c3ccc(F)cc3)[nH]c3c(F)cc(F)cc23)C1)N[C@H](CO)C(F)(F)F (stereo not given in full) | > 1000 nM | 
13 | O=C(NC1CC(O)C1)[C@H]1C[C@H](c2c(-c3ccc(F)cc3)[nH]c3c(F)cc(F)cc32)C1 (stereo not given in full) | 0.25 nM | 250 nM
14 | Cc1ccn(CCNC(=O)[C@H]2C[C@H](c3c(-c4ccc(F)cc4)[nH]c4c(F)cc(F)cc43)C2)n1 | > 1000 nM | 250 nM
15 | NCCCNC(=O)[C@H]1C[C@H](c2c(-c3ccc(F)cc3)[nH]c3c(F)cc(F)cc32)C1 | 0.25 nM | < 250 nM
16 | O=C(O)CNC(=O)[C@H]1C[C@H](c2c(-c3ccc(F)cc3)[nH]c3c(F)cc(F)cc32)C1 | > 1000 nM | > 1000 nM
17 | CNC(=O)C(C)NCC1CC(c2c(-c3ccc(F)cc3)[nH]c3c(F)cc(F)cc23)C1 (stereo not given) | 0.25 nM | 
18 | O=C(NCC1CC(F)(F)C1)[C@H]1C[C@H](c2c(-c3ccc(F)cc3)[nH]c3c(F)cc(F)cc32)C1 | > 1000 nM | > 1000 nM
19 | O=C(CNC[C@H]1C[C@H](c2c(-c3ccc(F)cc3)[nH]c3c(F)cc(F)cc32)C1)NCO | < 250 nM | 
20 | O=C(NC1CCOC1)[C@H]1C[C@H](c2c(-c3ccc(F)cc3)[nH]c3c(F)cc(F)cc32)C1 (stereo not given in full) | > 1000 nM | 250 nM
21 | O=C1CC(NC(=O)[C@H]2C[C@H](c3c(-c4ccc(F)cc4)[nH]c4c(F)cc(F)cc43)C2)CN1 (stereo not given in full) | > 1000 nM | > 1000 nM
22 | COCCNC(=O)[C@H]1C[C@H](c2c(-c3ccc(F)cc3)[nH]c3c(F)cc(F)cc32)C1 | > 1000 nM | 250 nM
23 | CC(C)CC(NCC1CC(c2c(-c3ccc(F)cc3)[nH]c3c(F)cc(F)cc23)C1)C(N)=O (stereo not given) | > 1000 nM | 
24 | O=C(N[C@@H]1CCOC1)[C@H]1C[C@H](c2c(-c3ccc(F)cc3)[nH]c3c(F)cc(F)cc32)C1 | 0.25 nM | 250 nM
25 | C[C@@H](NCC1CC(c2c(-c3ccc(F)cc3)[nH]c3c(F)cc(F)cc23)C1)C(=O)N(C)C (stereo not given in full) | > 1000 nM | 

Row | Structure (SMILES) | IC50 (Apolipoprotein L1) | IC50 [1]
26 | CN1CCC(NC(=O)[C@H]2C[C@H](c3c(-c4ccc(F)cc4)[nH]c4c(F)cc(F)cc43)C2)C1=O (stereo not given in full) | < 250 nM | 250 nM
27 | O=C(NCCn1cncn1)[C@H]1C[C@H](c2c(-c3ccc(F)cc3)[nH]c3c(F)cc(F)cc32)C1 | < 250 nM | < 250 nM
28 | CC(CO)CNC(=O)[C@H]1C[C@H](c2c(-c3ccc(F)cc3)[nH]c3c(F)cc(F)cc32)C1 (stereo not given in full) | 0.25 nM | 250 nM
29 | CN(CC1CC(c2c(-c3ccc(F)cc3)[nH]c3c(F)cc(F)cc23)C1)C(=O)N1CCC1 (stereo not given) | > 1000 nM | 
30 | O=C(NCCn1cnnc1)[C@H]1C[C@H](c2c(-c3ccc(F)cc3)[nH]c3c(F)cc(F)cc32)C1 | > 1000 nM | > 1000 nM
31 | CC(C)CC(NC(=O)[C@H]1C[C@H](c2c(-c3ccc(F)cc3)[nH]c3c(F)cc(F)cc32)C1)C(N)=O (stereo not given in full) | > 1000 nM | > 1000 nM
32 | O=C(CC1CC(c2c(-c3ccc(F)cc3)[nH]c3c(F)cc(F)cc23)C1)N[C@@H]1CCNC1=O (stereo not given in full) | > 1000 nM | 
33 | NC(=O)CNC(=O)[C@H]1C[C@H](c2c(-c3ccc(F)cc3)[nH]c3c(F)cc(F)cc32)C1 | < 250 nM | < 250 nM
34 | C[C@@H](CO)NC(=O)CC1CC(c2c(-c3ccc(F)cc3)[nH]c3c(F)cc(F)cc23)C1 (stereo not given in full) | > 1000 nM | 
35 | O=C(N[C@H]1C[C@H](O)C1)[C@H]1C[C@H](c2c(-c3ccc(F)cc3)[nH]c3c(F)cc(F)cc32)C1 | > 1000 nM | 250 nM
36 | O=C1NCCC1NC(=O)[C@H]1C[C@H](c2c(-c3ccc(F)cc3)[nH]c3c(F)cc(F)cc32)C1 (stereo not given in full) | < 250 nM | < 250 nM
37 | O=C(NCCn1cccc1)[C@H]1C[C@H](c2c(-c3ccc(F)cc3)[nH]c3c(F)cc(F)cc32)C1 | > 1000 nM | 250 nM
38 | Cc1cc(CNC(=O)[C@H]2C[C@H](c3c(-c4ccc(F)cc4)[nH]c4c(F)cc(F)cc43)C2)on1 | > 1000 nM | 250 nM
39 | CN1CCN(C(=O)CNCC2CC(c3c(-c4ccc(F)cc4)[nH]c4c(F)cc(F)cc34)C2)CC1 (stereo not given) | > 1000 nM | 
40 | C[C@@H](NC(=O)[C@H]1C[C@H](c2c(-c3ccc(F)cc3)[nH]c3c(F)cc(F)cc32)C1)C(N)=O | 0.25 nM | > 1000 nM
41 | C[C@H](NCC1CC(c2c(-c3ccc(F)cc3)[nH]c3c(F)cc(F)cc23)C1)C(=O)N(C)C (stereo not given in full) | 0.25 nM | 
42 | O=C(CC1CC(c2c(-c3ccc(F)cc3)[nH]c3c(F)cc(F)cc23)C1)N[C@H]1CCNC1=O (stereo not given in full) | > 1000 nM | 
43 | C[C@@H](CO)NC(=O)[C@H]1C[C@H](c2c(-c3ccc(F)cc3)[nH]c3c(F)cc(F)cc32)C1 | < 250 nM | < 250 nM
44 | NCC(O)CNC(=O)[C@H]1C[C@H](c2c(-c3ccc(F)cc3)[nH]c3c(F)cc(F)cc32)C1 (stereo not given in full) | 0.25 nM | 250 nM
45 | O=C(NCC1CCOCC1)[C@H]1C[C@H](c2c(-c3ccc(F)cc3)[nH]c3c(F)cc(F)cc32)C1 | > 1000 nM | > 1000 nM
46 | O=C1NCCCC1NC(=O)[C@H]1C[C@H](c2c(-c3ccc(F)cc3)[nH]c3c(F)cc(F)cc32)C1 (stereo not given in full) | 0.25 nM | 250 nM
47 | CON(C)C(=O)CNC[C@H]1C[C@H](c2c(-c3ccc(F)cc3)[nH]c3c(F)cc(F)cc32)C1 | 0.25 nM | 
48 | C[C@H](CO)NC(=O)C1CCC(c2c(-c3ccc(F)cc3)[nH]c3c(F)cc(F)cc23)C1 (stereo not given in full) | > 1000 nM | 
49 | C[C@H](CO)NC(=O)CC1CC(c2c(-c3ccc(F)cc3)[nH]c3c(F)cc(F)cc23)C1 (stereo not given in full) | > 1000 nM | 
50 | O=C(NCC(F)F)N1CC(c2c(-c3ccc(F)cc3)[nH]c3c(F)cc(F)cc23)C1 | 0.25 nM | 

Row | Structure (SMILES) | IC50 (Apolipoprotein L1) | IC50 [1]
51 | COCCNC(=O)CC1CC(c2c(-c3ccc(F)cc3)[nH]c3c(F)cc(F)cc23)C1 (stereo not given) | > 1000 nM | 
52 | Cc1cnc(NC(=O)[C@H]2C[C@H](c3c(-c4ccc(F)cc4)[nH]c4c(F)cc(F)cc43)C2)o1 | ≥ 250 nM | < 250 nM
53 | CCNC(=O)N1CC(c2c(-c3ccc(F)cc3)[nH]c3c(F)cc(F)cc23)C1 | 0.25 nM | 
54 | Cc1cc(NC(=O)[C@H]2C[C@H](c3c(-c4ccc(F)cc4)[nH]c4c(F)cc(F)cc43)C2)no1 | 0.25 nM | 250 nM
55 | CC(C)NC(=O)CNC[C@H]1C[C@H](c2c(-c3ccc(F)cc3)[nH]c3c(F)cc(F)cc32)C1 | > 1000 nM | 
56 | CC[C@H](NCC1CC(c2c(-c3ccc(F)cc3)[nH]c3c(F)cc(F)cc23)C1)C(=O)NCC(F)(F)F (stereo not given in full) | > 1000 nM | 
57 | O=C(NC(CO)CO)[C@H]1C[C@H](c2c(-c3ccc(F)cc3)[nH]c3c(F)cc(F)cc32)C1 | < 250 nM | < 250 nM
58 | CS(=O)(=O)CCNC(=O)[C@H]1C[C@H](c2c(-c3ccc(F)cc3)[nH]c3c(F)cc(F)cc32)C1 | < 250 nM | > 1000 nM
59 | O=C(NC1(CO)CCC1)[C@H]1C[C@H](c2c(-c3ccc(F)cc3)[nH]c3c(F)cc(F)cc32)C1 | < 250 nM | < 250 nM
60 | Cn1cc(CNC(=O)[C@H]2C[C@H](c3c(-c4ccc(F)cc4)[nH]c4c(F)cc(F)cc43)C2)cn1 | > 1000 nM | 250 nM
61 | O=C(CC1CC(c2c(-c3ccc(F)cc3)[nH]c3c(F)cc(F)cc23)C1)NC1(CO)CCC1 (stereo not given) | > 1000 nM | 
62 | NC(=O)C(CC(F)(F)F)NCC1CC(c2c(-c3ccc(F)cc3)[nH]c3c(F)cc(F)cc23)C1 (stereo not given) | > 1000 nM | 
63 | Cn1ccc(NC(=O)[C@H]2C[C@H](c3c(-c4ccc(F)cc4)[nH]c4c(F)cc(F)cc43)C2)n1 | > 1000 nM | 250 nM
64 | CNC(=O)C(C)NC(=O)[C@H]1C[C@H](c2c(-c3ccc(F)cc3)[nH]c3c(F)cc(F)cc32)C1 (stereo not given in full) | 0.25 nM | 250 nM
65 | O=C(CNC[C@H]1C[C@H](c2c(-c3ccc(F)cc3)[nH]c3c(F)cc(F)cc32)C1)NC1CC1 | 0.25 nM | 
66 | O=C1CCC(NC(=O)[C@H]2C[C@H](c3c(-c4ccc(F)cc4)[nH]c4c(F)cc(F)cc43)C2)C(=O)N1 (stereo not given in full) | 0.25 nM | 250 nM
67 | NC(=O)C(CO)NC(=O)[C@H]1C[C@H](c2c(-c3ccc(F)cc3)[nH]c3c(F)cc(F)cc32)C1 (stereo not given in full) | < 250 nM | < 250 nM
68 | CC(CO)NC(=O)[C@H]1C[C@H](c2c(-c3ccc(F)cc3)[nH]c3c(F)cc(F)cc32)C1 (stereo not given in full) | < 250 nM | < 250 nM
69 | O=C(CC1CC(c2c(-c3ccc(F)cc3)[nH]c3c(F)cc(F)cc23)C1)NC1(CO)CC1 (stereo not given) | 0.25 nM | 
70 | O=C(CC1CC(c2c(-c3ccc(F)cc3)[nH]c3c(F)cc(F)cc23)C1)NCCO (stereo not given) | > 1000 nM | 
71 | CN(CC1CC(c2c(-c3ccc(F)cc3)[nH]c3c(F)cc(F)cc23)C1)C(=O)NCCO (stereo not given) | > 1000 nM | 
72 | CC(C)(NC(=O)[C@H]1C[C@H](c2c(-c3ccc(F)cc3)[nH]c3c(F)cc(F)cc32)C1)C(N)=O | 0.25 nM | < 250 nM
73 | O=C(N[C@H]1CCNC1=O)O[C@H]1C[C@H](c2c(-c3ccc(F)cc3)[nH]c3c(F)cc(F)cc32)C1 (relative stereo) | > 1000 nM | 
74 | O=C(NC[C@@H](O)C(F)(F)F)NC[C@H]1C[C@H](c2c(-c3ccc(F)cc3)[nH]c3c(F)cc(F)cc32)C1 (relative stereo) | > 1000 nM | 
